According to ChEMBL document CHEMBL1125884, “Synthesis and biochemical studies of 16- or 19-substituted androst-4-enes as aromatase inhibitors” (J Med Chem, 1991):
pIC50, pKi: −log10 of the molar value.

What was measured:
Aromatase [1] = molecular target: T1, Aromatase (Homo sapiens, UniProt P11511)
T1 sequence (P11511 whole entry): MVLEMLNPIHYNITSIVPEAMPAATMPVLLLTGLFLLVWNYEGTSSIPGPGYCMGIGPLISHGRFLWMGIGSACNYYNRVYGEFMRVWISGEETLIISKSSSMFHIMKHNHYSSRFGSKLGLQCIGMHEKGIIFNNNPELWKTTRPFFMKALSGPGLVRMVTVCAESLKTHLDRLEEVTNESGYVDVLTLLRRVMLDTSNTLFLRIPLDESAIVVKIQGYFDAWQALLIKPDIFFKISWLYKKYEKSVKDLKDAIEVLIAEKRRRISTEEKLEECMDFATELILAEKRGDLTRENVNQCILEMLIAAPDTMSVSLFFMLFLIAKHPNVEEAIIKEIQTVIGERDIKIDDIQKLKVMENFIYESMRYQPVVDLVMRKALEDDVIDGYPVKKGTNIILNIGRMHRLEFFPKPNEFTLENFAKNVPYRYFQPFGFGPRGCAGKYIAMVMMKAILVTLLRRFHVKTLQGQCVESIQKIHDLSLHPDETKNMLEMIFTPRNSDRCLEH
Description: Inhibition of 1 uM [1-beta-3H]-androstenedione binding to human placental microsome Cytochrome P450 19A1

Aromatase [2] = molecular target: T1, Aromatase; assay: Binding affinity for human placental microsome cytochrome P450 19A1 with 1 uM [1-beta-3H]-androstenedione

Row | Compound | pIC50 (Aromatase [1]) | pKi (Aromatase [2])
1 | CC12CCC3C(CCC4=CCCCC43C)C1C[C@@H](Br)C2=O (some centres undefined) | 5.39 | 6.64
2 | C#CC(O)C12CCCC=C1CCC1C3CCC(=O)C3(C)CCC12 (centres undefined) | 4.21 | 5.11
3 | C[C@]12CC[C@H]3[C@@H](CCC4=CCCC[C@@]43C(F)F)[C@@H]1CC[C@@H]2O | 4.59 | –
4 | CC12CCC3C(CCC4=CCCCC43C)C1C[C@H](Br)C2=O (some centres undefined) | 5.23 | 6.34
5 | CC(=O)OCC12CCCC=C1CCC1C2CCC2(C)C(OC(C)=O)CCC12 (centres undefined) | 4.42 | –
6 | CC12CCCC=C1CCC1C2CCC2(C)C(O)CCC12 (centres undefined) | 5.14 | 6.08
7 | C[C@]12CCC(=O)C(O)=C1CC[C@@H]1[C@@H]2CC[C@]2(C)C(=O)CC[C@@H]12 [FORMESTANE] | 6.39 | –
8 | C[C@]12CC[C@H]3[C@@H](CCC4=CCCC[C@@]43CO)[C@@H]1CCC2=O | 6.57 | 7.89
9 | CC(=O)OC1CCC2C3CCC4=CCCCC4(CO)C3CCC12C (centres undefined) | 4.00 | –
10 | CC12CCC3C(CCC4=CCCCC43C(F)F)C1CCC2=O (centres undefined) | 5.92 | 6.35
11 | CC12CCC3C(CCC4=CCCCC43CO)C1CCC2O (centres undefined) | 5.64 | 6.77
12 | CC(=O)OCC12CCCC=C1CCC1C2CCC2(C)C(O)CCC12 (centres undefined) | 4.36 | –
